Laboratory results as given in patent US5366958A, “Localized delivery using fibronectin conjugates” (The Liposome Company, Inc., priority 1993, dated 1994).

Columns and labels:
[1] = ocular application; cited from earlier work
[2] = format: in vivo, mouse (female Swiss Webster); conditions: intra-articular, 2 ul, normalized to maximum possible value of 100%
Procedure: For this example control SPLVs were prepared as described in Section 4.3. using the following formulation: 100 mg EPC, 3.7 mg PE, and 10 mg indomethacin were dissolved in chloroform and then dried down to a film. The indomethacin was entrapped in the SPLVs by resuspending the film in ether, adding the aqueous phase and sonicating while evaporating. Trace amounts of radiolabeled ^14 C-indomethacin were incorporated to quantify retention of drug in joints of injected test animals.
Twenty-five female Swiss Webster mice were anesthetized with 50 mg/kg pentobarbitol and divided into 5 treatment groups. Group 1 was treated with unentrapped ^14 C-indomethacin (trace amount) in PBS buffer solution. Group 2 was treated with ^14 C-indomethacin entrapped in SPLVs (control SPLVs). Group 3 was treated with fibronectin-modified control SPLVs (non-covalent association) prepared by incubation of the SPLV-entrapped ^14 C-indomethacin with 0.3 mg fibronectin (FN, Seragen, Inc., Boston, Mass.; or Collaborative Research, Inc., Lexington, Mass.) for 2 hours before the SPLVs were repeatedly washed to remove unincorporated materials. Groups 4 and 5 were treated with SPLVs in which fibronectin was covalently attached to the liposomes. […] Two drops of glacial acetic acid were then added and samples were dark adapted over night before radioactivity was determined.

| Molecule | effectiveness in treating recurrent corneal erosion [1] | % Total 14C-Indomethacin Remaining in Joint, 5 Hours ([2]; 5 hours post-injection) | % Total 14C-Indomethacin Remaining in Joint, 24 Hours ([2]; 24 hours post-injection) |
| --- | --- | --- | --- |
| fibronectin | effective |  |  |
| COc1ccc2c(c1)c(CC(=O)O)c(C)n2C(=O)c1ccc(Cl)cc1 [Unentrapped 14C-Indomethacin, indomethacin] |  | 4.7% | 1.0% |
